According to PubChem BioAssay (NCI):
Values after ≈ are worked out from the molar mass of the structure shown. Values joined by “and” are separate entries in the source; they are usually repeats but may differ in a detail not shown here. Identical values can stand only once.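 Values below derive from 48-hour exposures of cells grown in 96-well plates, with endpoints linearly interpolated between the two concentrations bracketing the appropriate inhibition level. Here, GI50 denotes the concentration required for 50% inhibition of growth. TGI is the concentration that stops growth completely.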

Columns and labels:
Assay in all cases: NCI-60 cell line screen, 48 h
NCI/ADR-RES ovarian = test system: NCI/ADR-RES ovarian
COLO 205 colon = test system: COLO 205 colon
SF-295 CNS = test system: SF-295 CNS
SF-268 CNS = test system: SF-268 CNS
NCI-H23 lung = test system: NCI-H23 lung
U251 CNS = test system: U251 CNS
SF-539 CNS = test system: SF-539 CNS
HOP-62 NSCLC = test system: HOP-62 NSCLC
NCI-H226 lung = test system: NCI-H226 lung
SNB-75 CNS = test system: SNB-75 CNS

Row | SMILES | TGI (NCI/ADR-RES ovarian) | TGI (COLO 205 colon) | TGI (SF-295 CNS) | TGI (SF-268 CNS) | TGI (NCI-H23 lung) | TGI (U251 CNS) | TGI (SF-539 CNS) | TGI (HOP-62 NSCLC) | TGI (NCI-H226 lung) | TGI (SNB-75 CNS) | GI50 (NCI/ADR-RES ovarian) | GI50 (COLO 205 colon) | GI50 (SF-268 CNS) | GI50 (NCI-H23 lung) | GI50 (U251 CNS) | GI50 (SF-539 CNS) | GI50 (HOP-62 NSCLC) | GI50 (NCI-H226 lung) | GI50 (SF-295 CNS) | GI50 (SNB-75 CNS)
1 | CC[C@@]1(O)C(=O)OCc2c1cc1n(c2=O)Cc2c-1nc1ccc(N)cc1c2CC[Si](C)(C)C | 2.02 µM | 0.197 µM | < 0.0417 µM | 1.76 µM | < 0.01 µM | 0.543 µM | < 0.01 µM | 0.368 µM | < 0.01 µM |  |  |  |  |  |  |  |  |  |  | 
2 | COc1cc2c(cc1C)NC(=O)/C2=C/c1c(Cl)[nH]c2ccccc12 |  | 13.1 µM | 5.52 µM | 17.7 µM | 23.7 µM | 16.9 µM | 4.15 µM | 14.6 µM |  | 21.7 µM |  |  |  |  |  |  |  |  |  | 
3 | Clc1ccc(Cc2nc3cc(Cl)c(Cl)cc3n2CC2CCCN3CCCCC23)cc1 (centres undefined) | 27.3 µM | 22.3 µM | 29.2 µM | 22.3 µM |  | 20.8 µM | 22.3 µM | 40.8 µM | 38 µM | 21.6 µM |  |  |  |  |  |  |  |  |  | 
4 | CN1C/C(=C\c2ccccc2)C2=NN(C(N)=S)[C@H](c3ccccc3)[C@@H]2C1 |  | > 100 µM | > 100 µM | > 100 µM | > 100 µM | > 100 µM | > 100 µM | > 100 µM | > 100 µM |  |  |  |  |  |  |  |  |  |  | 
5 | C=CCSC1=N/C(=C\c2ccc(C)cc2)C(=O)N1CC=C | > 100 µM | 42 µM | > 100 µM | > 100 µM | > 100 µM | 57.1 µM | > 100 µM | > 100 µM |  |  |  |  |  |  |  |  |  |  |  | 
6 | CC(C)C(Sc1nc(N)nc2nc[nH]c12)C(=O)O (centres undefined) | > 100 µM | > 100 µM | > 100 µM | > 100 µM | > 100 µM | > 100 µM |  | > 100 µM | > 100 µM | > 100 µM |  |  |  |  |  |  |  |  |  | 
7 | O=C(O)c1ccccc1Sc1ccc(C=C2NC(=S)N(c3ccccc3)C2=O)s1 | > 100 µM | > 100 µM | > 100 µM | > 100 µM | > 100 µM | > 100 µM |  | > 100 µM | > 100 µM | > 100 µM |  |  |  |  |  |  |  |  |  | 
8 | c1ccc(-c2cc(-c3ccccc3)nc(-c3ccncc3)c2)cc1 | > 100 µM | > 100 µM | > 100 µM | > 100 µM | > 100 µM | > 100 µM |  | 55.4 µM | > 100 µM |  |  |  |  |  |  |  |  |  |  | 
9 | c1c2c(cc3c1OCO3)-c1ncc3cc4c(cc3c1C2)OCO4 | 52.4 µM |  | > 34 µM | 7.79 µM | > 24.7 µM | 26.9 µM | 5.25 µM | 27.5 µM | > 100 µM |  | 0.0508 µM | < 0.0354 µM | 0.112 µM | < 0.0229 µM | < 0.0369 µM | 0.598 µM | 0.112 µM | 8.8 µM |  | 
10 | CCCNC(=O)c1cc(OC)c(OC)cc1NC(=O)C12CC3CC(CC(C3)C1)C2 | 48.3 µM | 56.6 µM | 35.9 µM | 35 µM | 31.6 µM | 30.7 µM | 46.9 µM | 34.7 µM | 55 µM |  |  |  |  |  |  |  |  |  |  | 
11 | CC(=O)N(C(=O)CC(=O)N1N=C(C)C(N=Nc2cccc([N+](=O)[O-])c2)C1=O)c1ccc(Cl)cc1 (centres undefined) | > 10 µM | > 10 µM | > 10 µM | > 10 µM | > 10 µM | > 10 µM | > 10 µM | > 10 µM |  | > 10 µM |  |  |  |  |  |  |  |  |  | 
12 | COc1ccc(C(CC(=O)c2cccs2)C(=O)c2ccc3c(c2)OCO3)cc1 (centres undefined) | > 100 µM | > 100 µM |  | > 100 µM | > 100 µM | > 100 µM | > 100 µM | > 100 µM |  | > 100 µM |  |  |  |  |  |  |  |  |  | 
13 | CC(NC(CC12CC3CC(CC(C3)C1)C2)C(N)=O)c1ccccc1 (centres undefined) | 48 µM | 28.7 µM | 28.4 µM | 61.2 µM |  | 26.1 µM |  | > 100 µM |  |  |  |  |  |  |  |  |  |  |  | 
14 | CCC(C)C(NC(=O)c1cccc2c(=O)c3ccccc3[nH]c12)C(=O)O (centres undefined) | > 100 µM | > 100 µM | > 100 µM | > 100 µM | > 100 µM | > 100 µM |  | > 100 µM | > 100 µM | > 100 µM |  |  |  |  |  |  |  |  |  | 
15 | O=C(NCC(O)COc1ccccc1)c1ccccc1O (centres undefined) | > 100 µM | > 100 µM | > 100 µM |  | > 100 µM | > 100 µM | > 100 µM | > 100 µM | > 100 µM |  |  |  |  |  |  |  |  |  |  | 
16 | Cc1ccc(-c2ccc3c(c2)Sc2ccccc2O3)n1C | 12.6 µM | 2.12 µM | 0.799 µM | > 33.9 µM | > 100 µM | > 100 µM |  | > 100 µM | > 100 µM |  |  |  |  |  |  |  |  |  |  | 
17 | Cc1c2ccncc2c(C)c2c1[nH]c1ccc(O)cc12 |  | 0.455 µg/mL | 0.167 µg/mL |  | 84.1 mM and 0.0172 µg/mL | 0.35 µg/mL | 1.29 µg/mL | 0.206 µg/mL | 1.08 µg/mL |  |  | 0.0699 µg/mL |  | 11800 µM | 0.042 µg/mL | 0.263 µg/mL | 0.0255 µg/mL | 0.137 µg/mL | 0.0181 µg/mL (≈ 0.0692 µM) | 22600 µM
18 | COC1=CC(=O)[C@@]2(C)C(C)[C@H](c3ccccc3)[C@H]2C1=O (some centres undefined) |  | > 100 µM | > 100 µM | > 100 µM | > 100 µM | > 100 µM | > 100 µM | > 100 µM | > 100 µM | > 100 µM |  |  |  |  |  |  |  |  |  | 
19 | CCN(CC)C(=O)Cc1[nH][nH]c(=O)c1C(=O)N(CC)CC |  | > 100 µM | > 100 µM | > 100 µM | > 100 µM | > 100 µM | > 100 µM | > 100 µM | > 100 µM | > 100 µM |  |  |  |  |  |  |  |  |  | 
20 | CC/C(CC(=O)CCC(=O)Nc1ccc(C)c(C)c1)=N\NC(=O)c1cc2ccccc2cc1O |  | > 100 µM | > 100 µM | > 100 µM | 89.4 µM | > 100 µM |  | > 100 µM | > 100 µM |  |  |  |  |  |  |  |  |  |  | 
21 | O=C1c2ccccc2CC12Cc1ccc3c(c1C2=O)CCCC3 (centres undefined) | > 100 µM | > 100 µM | > 100 µM | > 100 µM |  | > 100 µM | > 100 µM | > 100 µM | > 100 µM | 70.5 µM |  |  |  |  |  |  |  |  |  | 
22 | CC(C)=CC(=O)c1[nH]c2ccccc2c1CC(=O)NCCc1cnc[nH]1 | > 100 µM | > 100 µM | > 100 µM | > 100 µM | > 100 µM | > 100 µM | > 100 µM |  | > 100 µM | > 100 µM |  |  |  |  |  |  |  |  |  | 
